Patent US8722849B2, “Polypeptides” (Novo Nordisk A/S, priority 2011, dated 2014)
Converted amounts (≈) assume the structure as drawn. Where two headings read alike, the source gives them in different places. Starred links: 1 amine or outer side, 2 acyl side, 3 side chain; linkers in the order of their positions; H or OH if unused. Positions of bridges follow the written chain, without caps; N, C: chain ends. Residues, ends and D or L forms follow the SMILES beside them. *: point of attachment. C20 diacid = O=C(O)CCCCCCCCCCCCCCCCCCC(=O)*; C18 diacid = O=C(O)CCCCCCCCCCCCCCCCC(=O)*; γGlu = O=C(O)[C@H](CCC(=O)[*:2])N[*:1]

Columns and labels:
[1] = Assay (IV) determination of solubility; type: physicochemical
In short: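 Solubility was profiled across pH 3.0–8.0 after 18 hours at room temperature: a ~500 nmol/ml aqueous polypeptide solution was diluted 1:1 into 100 mM glycylglycine or bistrispropane buffers. After centrifugation, HPLC gave the dissolved concentration.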

[2] = target: T1, human amylin receptor (amylin 3(a) receptor: human calcitonin receptor + RAMP-3) (Homo sapiens, UniProt O60896+P30988); assay: Assay (II)a functional CRE-luciferase assay, human amylin receptor; type: cell-based; details: Table 2; BHK amylin 3(a)-receptor/CRE-luc cells
T1 construct: expressed in transfected cells; host or cells: BHK570
T1 sequence (P30988 25-474): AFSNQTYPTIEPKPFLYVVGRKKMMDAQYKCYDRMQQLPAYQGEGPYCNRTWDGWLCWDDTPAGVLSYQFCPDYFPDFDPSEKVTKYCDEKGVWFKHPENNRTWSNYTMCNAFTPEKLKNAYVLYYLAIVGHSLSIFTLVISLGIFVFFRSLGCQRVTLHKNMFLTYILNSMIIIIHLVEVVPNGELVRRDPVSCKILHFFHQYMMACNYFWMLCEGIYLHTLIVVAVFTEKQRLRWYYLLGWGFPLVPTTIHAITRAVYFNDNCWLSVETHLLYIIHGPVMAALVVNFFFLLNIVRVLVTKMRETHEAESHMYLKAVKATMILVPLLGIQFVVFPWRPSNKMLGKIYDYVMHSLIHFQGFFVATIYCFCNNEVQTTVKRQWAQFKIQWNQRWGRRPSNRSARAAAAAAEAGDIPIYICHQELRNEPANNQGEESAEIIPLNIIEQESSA
T1 sequence (O60896 24-148 partner): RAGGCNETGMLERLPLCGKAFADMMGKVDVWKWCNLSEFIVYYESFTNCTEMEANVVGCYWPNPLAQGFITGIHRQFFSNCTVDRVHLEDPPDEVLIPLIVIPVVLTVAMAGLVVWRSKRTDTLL

[3] = target: T2, human calcitonin receptor (Homo sapiens, UniProt P30988); assay: Assay (II)a functional CRE-luciferase assay, human calcitonin receptor; type: cell-based; details: Table 7; human calcitonin (CTa) receptor
T2 construct: expressed in transfected cells; host or cells: BHK570
T2 sequence (P30988 25-474): T1 sequence (P30988 25-474)

[4] = bistrispropane buffer, pH 6, pH 6.0, read-out: Solubility pH 6.0
[5] = bistrispropane buffer, pH 6.5, pH 6.5, read-out: Solubility pH 6.5
[6] = bistrispropane buffer, pH 7, pH 7.0, read-out: Solubility pH 7.0
[7] = bistrispropane buffer, pH 7.5, pH 7.5, read-out: Solubility pH 7.5
[8] = bistrispropane buffer, pH 8, pH 8.0, read-out: Solubility pH 8.0
[9] = glycylglycine buffer, pH 3, pH 3.0, read-out: Solubility pH 3.0
[10] = glycylglycine buffer, pH 4, pH 4.0, 18 hours at room temperature, Table 2, read-out: Solubility pH 4.0
[11] = glycylglycine buffer, pH 4, pH 4.0, read-out: Solubility pH 4.0
[12] = glycylglycine buffer, pH 5, pH 5.0, read-out: Solubility pH 5.0

solubility at 18 h [1, 4]	solubility at 18 h [1, 5]	solubility at 18 h [1, 6]	solubility at 18 h [1, 7]	solubility at 18 h [1, 8]	solubility at 18 h [1, 9]	solubility at 18 h [1, 10]	solubility at 18 h [1, 11]	solubility at 18 h [1, 12]	EC50 [2]	EC50 [3]	Compound
69 µM (≈ 315 µg/mL)	32 µM (≈ 146 µg/mL)	42 µM (≈ 192 µg/mL)	89 µM (≈ 406 µg/mL)	155 µM (≈ 708 µg/mL)	> 200 µM	> 200 µM	> 200 µM	13 µM (≈ 59.3 µg/mL)	0.0779 nM	0.131 nM	CC[C@H](C)[C@H](NC(=O)[C@H](CCC(=O)O)NC(=O)CNC(=O)[C@H](Cc1ccccc1)NC(=O)[C@H](CC(N)=O)NC(=O)[C@H](CC(N)=O)NC(=O)[C@H](CO)NC(=O)[C@H](CO)NC(=O)[C@H](CCCNC(=N)N)NC(=O)[C@H](Cc1c[nH]cn1)NC(=O)[C@H](CC(C)C)NC(=O)[C@H](Cc1ccccc1)NC(=O)[C@H](CCC(=O)O)NC(=O)[C@H](C)NC(=O)[C@H](CC(C)C)NC(=O)[C@H](CCCNC(=N)N)NC(=O)[C@H](CCC(N)=O)NC(=O)[C@@H](NC(=O)[C@H](C)NC(=O)[C@@H]1CSSC[C@H](NC(=O)[C@H](Cc2c[nH]cn2)NC(=O)CC[C@H](NC(=O)CCCCCCCCCCCCCCCCCCC(=O)O)C(=O)O)C(=O)N[C@@H](CC(N)=O)C(=O)N[C@@H]([C@@H](C)O)C(=O)N[C@@H](C)C(=O)N[C@@H]([C@@H](C)O)C(=O)N1)[C@@H](C)O)C(=O)N[C@@H](CC(C)C)C(=O)N[C@@H](CO)C(=O)N[C@@H](CCCNC(=N)N)C(=O)N[C@H](C(=O)N[C@@H](CC(N)=O)C(=O)N[C@H](C(=O)NCC(=O)N[C@@H](CO)C(=O)N[C@@H](CC(N)=O)C(=O)N[C@H](C(=O)N[C@@H](Cc1ccc(O)cc1)C(N)=O)[C@@H](C)O)C(C)C)[C@@H](C)O [Example 7, N-alpha-[(S)-4-Carboxy-4-(19-carboxynonadecanoylamino)butyryl]-[His1,Glu14,His17,Arg18,Glu25,Ser28,Arg29]-pramlintide] ({C20 diacid-γGlu}-HCNTATCATQRLAEFLHRSSNNFGEILSRTNVGSNTY-NH2; disulfide 2-7 (inferred); C-terminus assumed)
161 µM (≈ 720 µg/mL)	132 µM (≈ 591 µg/mL)	73 µM (≈ 327 µg/mL)	62 µM (≈ 277 µg/mL)	21 µM (≈ 94 µg/mL)	> 200 µM	> 200 µM	> 200 µM	183 µM (≈ 819 µg/mL)	0.101 nM	0.459 nM	CC[C@H](C)[C@H](NC(=O)[C@@H]1CCCN1C(=O)CNC(=O)[C@H](Cc1ccccc1)NC(=O)[C@H](CC(N)=O)NC(=O)[C@H](CC(N)=O)NC(=O)[C@H](CO)NC(=O)[C@H](CO)NC(=O)[C@H](Cc1c[nH]cn1)NC(=O)[C@H](CCCNC(=N)N)NC(=O)[C@H](CC(C)C)NC(=O)[C@H](Cc1ccccc1)NC(=O)[C@H](CCC(=O)O)NC(=O)[C@H](C)NC(=O)[C@H](CC(C)C)NC(=O)[C@H](CCCNC(=N)N)NC(=O)[C@H](CCC(N)=O)NC(=O)[C@@H](NC(=O)[C@H](C)NC(=O)[C@@H]1CSSC[C@H](NC(=O)[C@H](CCCCN)NC(=O)CC[C@H](NC(=O)CCCCCCCCCCCCCCCCCCC(=O)O)C(=O)O)C(=O)N[C@@H](CC(N)=O)C(=O)N[C@@H]([C@@H](C)O)C(=O)N[C@@H](C)C(=O)N[C@@H]([C@@H](C)O)C(=O)N1)[C@@H](C)O)C(=O)N[C@@H](CC(C)C)C(=O)N1CCC[C@H]1C(=O)N1CCC[C@H]1C(=O)N[C@H](C(=O)N[C@@H](CC(N)=O)C(=O)N[C@H](C(=O)NCC(=O)N[C@@H](CO)C(=O)N[C@@H](CC(N)=O)C(=O)N[C@H](C(=O)N[C@@H](Cc1ccc(O)cc1)C(N)=O)[C@@H](C)O)C(C)C)[C@@H](C)O [Example 50, N-alpha-[(S)-4-Carboxy-4-(19-carboxynonadecanoylamino)butyryl]-[Glu14,Arg17]-pramlintide] ({C20 diacid-γGlu}-KCNTATCATQRLAEFLRHSSNNFGPILPPTNVGSNTY-NH2; disulfide 2-7 (inferred))
> 200 µM	156 µM (≈ 719 µg/mL)	37 µM (≈ 170 µg/mL)	27 µM (≈ 124 µg/mL)	26 µM (≈ 120 µg/mL)	> 200 µM	> 200 µM	> 200 µM	> 200 µM	0.0795 nM	0.947 nM	CC[C@H](C)[C@H](NC(=O)[C@@H]1CCCN1C(=O)CNC(=O)[C@H](Cc1ccccc1)NC(=O)[C@H](CC(N)=O)NC(=O)[C@H](CC(N)=O)NC(=O)[C@H](CO)NC(=O)[C@H](CO)NC(=O)[C@H](Cc1c[nH]cn1)NC(=O)[C@H](CCCNC(=N)N)NC(=O)[C@H](CC(C)C)NC(=O)[C@H](Cc1ccccc1)NC(=O)[C@H](CCC(=O)O)NC(=O)[C@H](C)NC(=O)[C@H](CC(C)C)NC(=O)[C@H](CCCNC(=N)N)NC(=O)[C@H](CCC(N)=O)NC(=O)[C@@H](NC(=O)[C@H](C)NC(=O)[C@@H]1CSSC[C@H](NC(=O)[C@H](CCCCN)NC(=O)[C@H](Cc2c[nH]cn2)NC(=O)CC[C@H](NC(=O)CCCCCCCCCCCCCCCCC(=O)O)C(=O)O)C(=O)N[C@@H](CC(N)=O)C(=O)N[C@@H]([C@@H](C)O)C(=O)N[C@@H](C)C(=O)N[C@@H]([C@@H](C)O)C(=O)N1)[C@@H](C)O)C(=O)N[C@@H](CC(C)C)C(=O)N1CCC[C@H]1C(=O)N1CCC[C@H]1C(=O)N[C@H](C(=O)N[C@@H](CC(N)=O)C(=O)N[C@H](C(=O)NCC(=O)N[C@@H](CO)C(=O)N[C@@H](Cc1c[nH]cn1)C(=O)N[C@H](C(=O)N[C@@H](Cc1ccc(O)cc1)C(N)=O)[C@@H](C)O)C(C)C)[C@@H](C)O [Example 71, N-alpha-[(S)-4-Carboxy-4-(17-carboxyheptadecanoylamino)butyryl]-His-[Glu14,Arg17,His35]-pramlintide] ({C18 diacid-γGlu}-HKCNTATCATQRLAEFLRHSSNNFGPILPPTNVGSHTY-NH2; disulfide 3-8 (inferred); C-terminus assumed)
